≈ marks a conversion by molar mass, not a printed value. Calls of active or inactive are those of the source. The rule behind the calls is not given here.

One may read the MIC as the lowest concentration that inhibits growth of the organism. Read a high MIC as a need for much substance.

The subject of data set [1] is Staphylococcus aureus. Nature of the data set: Antibacterial activity against methicillin-resistant Staphylococcus aureus assessed growth inhibition by micro broth dilution method. The class given is functional. (Dilution methods test growth across graded concentrations, often in twofold steps.)
In data set [2] the test system is Staphylococcus aureus. Kind of data set: Antibacterial activity against Staphylococcus aureus assessed growth inhibition by micro broth dilution method. The class given is functional.
Data set [3] has as its system Staphylococcus aureus. Kind of data set: Antibacterial activity against Staphylococcus aureus ATCC 25923 assessed growth inhibition by micro broth dilution method. The class given is functional.
In data set [4] the test system is Staphylococcus aureus. Kind of data set: Antibacterial activity against Staphylococcus aureus ATCC 29213 assessed growth inhibition by micro broth dilution method. The class given is functional.
Data set [5] deals with Enterococcus faecalis. Nature of the data set: Antibacterial activity against Enterococcus faecalis assessed growth inhibition by micro broth dilution method. The format is functional.
Data set [6] deals with Klebsiella pneumoniae. Nature of the data set: Antibacterial activity against Klebsiella pneumonia assessed growth inhibition by micro broth dilution method. The format is functional.
The subject of data set [7] is Escherichia coli. Kind of data set: Antibacterial activity against Escherichia coli assessed growth inhibition by micro broth dilution method. The format is functional.
Data set [8] relates to Escherichia coli. Nature of the data set: Antibacterial activity against Escherichia coli ATCC 25922 assessed growth inhibition by micro broth dilution method. The format is functional.
For data set [9], the system named is Pseudomonas aeruginosa. Kind of data set: Antibacterial activity against Pseudomonas aeruginosa assessed growth inhibition by micro broth dilution method. The format is functional.
In data set [10] the test system is Pseudomonas aeruginosa. Nature of the data set: Antibacterial activity against Pseudomonas aeruginosa ATCC 27853 assessed growth inhibition by micro broth dilution method. The format is functional.
Data set [11] relates to Acinetobacter baumannii. Nature of the data set: Antibacterial activity against Acinetobacter baumannii assessed growth inhibition by micro broth dilution method. The class given is functional.
A short description of data set [12]: Hemolytic activity in human RBC assessed as hemolytic rate incubated measured upto 64 ug/ml. The format is toxicity, cell-based, Erythrocyte. The settings on record: human red blood cells (erythrocytes), up to 64 µg/mL, read-out: Activity.
A short description of data set [13]: Thermodynamic solubility of the compound in water. The class given is physicochemical. As to conditions: read-out: Therm_solubility.
For data set [14], the system named is Staphylococcus aureus. Kind of data set: Anti-biofilm activity against Staphylococcus aureus ATCC 29213 assessed as relative biofilm clearance rate at 8 times of MIC by crystal violet staining based assay. The class given is functional.
Data set [15] concerns Klebsiella pneumoniae. Nature of the data set: Anti-biofilm activity against Klebsiella pneumonia assessed as relative biofilm clearance rate at 8 times of MIC by crystal violet staining based assay. The class given is functional.
Data set [16] has as its system Staphylococcus aureus. Nature of the data set: Bactericidal activity against Staphylococcus aureus ATCC 29213 assessed as time dependent killing at 4 times of MIC measured at 8 hrs. The format is functional, organism-based.
Data set [17] deals with Klebsiella pneumoniae. Nature of the data set: Bactericidal activity against Klebsiella pneumonia assessed as time dependent killing at 4 times of MIC measured at 8 hrs. The class given is functional, organism-based.
Data set [18] deals with Staphylococcus aureus. Kind of data set: Induction of resistance development in Staphylococcus aureus ATCC 29213 assessed as after 20 passages measured upto 4.5 times of MIC. The class given is functional.
The subject of data set [19] is Klebsiella pneumoniae. Kind of data set: Induction of resistance development in Klebsiella pneumonia assessed as after 20 passages measured upto 4.5 times of MIC. The class given is functional.
Data set [20] deals with Staphylococcus aureus. Nature of the data set: Anti-biofilm activity against Staphylococcus aureus ATCC 29213 assessed as relative biofilm clearance rate by crystal violet staining based assay. The format is functional, organism-based.
Data set [21] has as its system Klebsiella pneumoniae. Nature of the data set: Anti-biofilm activity against Klebsiella pneumonia assessed as relative biofilm clearance rate by crystal violet staining based assay. The format is functional, organism-based.
The test system of data set [22] is Cell membrane. Nature of the data set: Induction of outer membrane permeability in Klebsiella pneumonia assessed as increase in fluorescence intensity at 2 times of MIC by N-phenyl naphthylamine (NPN) dye based assay. The class given is cell membranes. The settings on record: Klebsiella pneumoniae.
The subject of data set [23] is Cell membrane. Kind of data set: Induction of inner membrane permeability in Staphylococcus aureus ATCC 29213 assessed as increase in fluorescence intensity by propidium iodide uptake based microscopic imaging assay. The class given is cell membranes.
In data set [24] the test system is Cell membrane. Kind of data set: Induction of inner membrane permeability in Klebsiella pneumonia assessed as increase in fluorescence intensity by propidium iodide uptake based microscopic imaging assay. As to conditions: Klebsiella pneumoniae. The class given is cell membranes.
Data set [25] deals with Cell membrane. Nature of the data set: Induction of cytoplasmic membrane depolarization in Staphylococcus aureus ATCC 29213 assessed as increase in fluorescence intensity at 2 times of MIC measured upto 40 mins by DiSC35 dye based fluorescence method. The format is cell membranes.
Data set [26] deals with Cell membrane. Nature of the data set: Induction of cytoplasmic membrane depolarization in Klebsiella pneumonia assessed as increase in fluorescence intensity at 2 times of MIC measured upto 40 mins by DiSC35 dye based fluorescence method. The format is cell membranes. The settings on record: Klebsiella pneumoniae.
Data set [27] concerns Cell membrane. Kind of data set: Induction of disruption of membrane integrity in Staphylococcus aureus ATCC 29213 assessed as leakage of intracellular proteins by Acid Blue 90 based assay. The class given is cell membranes.
Data set [28] has as its system Cell membrane. Kind of data set: Induction of disruption of membrane integrity in Klebsiella pneumonia assessed as leakage of intracellular proteins by Acid Blue 90 based assay. The class given is cell membranes. As to conditions: Klebsiella pneumoniae.
In data set [29] the test system is Calf thymus DNA. Kind of data set: Binding affinity to calf thymus DNA assessed as change in absorption measuring hyperchromism by UV-Vis absorption spectra analysis. The format is nucleic-acid assay. As to conditions: Bos taurus.
Data set [30] concerns Calf thymus DNA. Nature of the data set: Induction of calf thymus DNA double helix loss assessed as reduction in fluorescence intensity at 525 nm wavelength by acridine orange competition based assay. The format is nucleic-acid assay. The settings on record: Bos taurus.
The test system of data set [31] is Staphylococcus aureus. Kind of data set: Induction of ROS generation in Staphylococcus aureus ATCC 29213 assessed as increase in fluorescence intensity by DCFH-DA based microscopic analysis. The format is functional, organism-based.
Data set [32] concerns Klebsiella pneumoniae. Kind of data set: Induction of ROS generation in Klebsiella pneumonia assessed as increase in fluorescence intensity by DCFH-DA based microscopic analysis. The class given is functional, organism-based.
The subject of data set [33] is Staphylococcus aureus. Kind of data set: Induction of ROS generation in Staphylococcus aureus ATCC 29213 assessed as loss of GSH activity by Ellmans method. The format is functional, organism-based. A general note: In Ellman's method for cholinesterases, released thiocholine reacts with DTNB.
The subject of data set [34] is Klebsiella pneumoniae. Kind of data set: Induction of ROS generation in Klebsiella pneumonia assessed as loss of GSH activity by Ellmans method. The format is functional, organism-based.
In data set [35] the test system is Staphylococcus aureus. Nature of the data set: Antibacterial activity against Staphylococcus aureus ATCC 29213 assessed as decrease in relative metabolic activity at 4 times of MIC by Alamar Blue assays. The format is functional, organism-based.
The subject of data set [36] is Klebsiella pneumoniae. Kind of data set: Antibacterial activity against Klebsiella pneumonia assessed as decrease in relative metabolic activity at 4 times of MIC by Alamar Blue assays. The format is functional, organism-based. (Alamar Blue is a resazurin reagent that responds to reducing activity.)
Data set [37] has as its system Staphylococcus aureus. Kind of data set: Antibacterial activity against Staphylococcus aureus ATCC 29213 assessed as morphological changes by measuring shrunken and cracked cells at 4 times of MIC by SEM microscopic analysis. The class given is functional, organism-based.
Data set [38] deals with Klebsiella pneumoniae. Kind of data set: Antibacterial activity against Klebsiella pneumonia assessed as morphological changes by measuring shrunken and cracked cells at 4 times of MIC by SEM microscopic analysis. The format is functional, organism-based.
Data set [39] has as its system Calf thymus DNA. Kind of data set: Binding affinity to calf thymus DNA assessed as change in absorption by UV-Vis absorption spectra analysis. The class given is nucleic-acid assay. The settings on record: Bos taurus.

In the case of `CCCCCCCCn1cc(C(=O)OCC)c(=O)c2cc(F)c(C(C#N)C(=O)OCC)cc21` (stereo unspecified) [listing 1 of 2 here], the MIC in data set [1] is 8 µg/mL (≈ 17.4 µM); in [2] it was 8 µg/mL (≈ 17.4 µM); in [3] it was 1 µg/mL (≈ 2.18 µM); in data set [4], 0.5 µg/mL (≈ 1.09 µM); in data set [5], 4 µg/mL (≈ 8.72 µM); in data set [6], 0.5 µg/mL (≈ 1.09 µM). The MIC in [7] was 2 µg/mL (≈ 4.36 µM); in data set [8] it was 2 µg/mL (≈ 4.36 µM); in [9] it was 0.5 µg/mL (≈ 1.09 µM); in data set [10], 0.5 µg/mL (≈ 1.09 µM); in [11], 0.5 µg/mL (≈ 1.09 µM). Besides, the hemolysis in data set [12] turned out to be 50%.
Consider `CCOC(=O)c1cn(Cc2ccc(Cl)c(Cl)c2)c2cc([C-](C#N)C(=O)OCC)c(F)cc2c1=O.[Na+]` (stereo unspecified), for which the MIC in [1] was determined as 8 µg/mL; in [2], 64 µg/mL; in [3] it was 0.25 µg/mL; in data set [4], 0.25 µg/mL; in data set [5], 1 µg/mL; in data set [6], 0.25 µg/mL. The MIC stood at 0.25 µg/mL in data set [7]; 0.25 µg/mL in data set [8]; 4 µg/mL in data set [9]; 0.5 µg/mL in data set [10]; 1 µg/mL in data set [11]. In [13], the solubility thermodynamic stood at 97.3 µg/mL. The Activity in data set [14] and in [15] was 70% in each case.
Take `CCOC(=O)c1cn(Cc2ccc(Cl)c(Cl)c2)c2cc(C(C#N)C(=O)OCC)c(F)cc2c1=O` (stereo unspecified): the outcome in data set [16], in [17], in data set [18], in data set [19], in data set [25] and in [26] (DISRUPTING AGENT) was Active. For the same molecule, the result in data set [29], in data set [30], in data set [35] and in data set [36] was Active. Further, the Activity result in data set [20], in [21], in [22], in data set [23], in data set [24] and in data set [27] was “Dose-Dependent Effect” throughout. Moreover, the Activity entry in data set [28], in [31], in data set [32], in data set [33] and in [34] was “Dose-Dependent Effect” throughout.
With `CCCCCCCCn1cc(C(=O)OCC)c(=O)c2cc(F)c(C(C#N)C(=O)OCC)cc21` (stereo unspecified) [listing 2 of 2 here], the outcome in data set [16], in [17], in data set [18], in [19], in data set [25] and in data set [26] was Active. Further, the outcome in [26] (DISRUPTING AGENT), in data set [37], in [38], in [39], in data set [30] and in data set [35] was Active. Also, the outcome in data set [36] was Active. In addition, the Activity result in data set [20], in [21], in data set [22], in data set [23], in [24] and in data set [27] was “Dose-Dependent Effect” throughout. The Activity result in data set [28], in data set [31], in [32], in [33] and in data set [34] was “Dose-Dependent Effect” in each case.
